Reference: US20070128217A1 (priority 2003, published 2007)

How the values were obtained:
[1] = tested on: antibodies in sera from SARS patients (sera 1a, 1b, 2, 6, 37, 62, London, SARS-yellow, SARS-green); type: binding, human; parameters: Binding of serum 6 to linear peptides of protein X1 of SARS-CoV Urbani / Binding of serum 37 to linear peptides of protein X1 of SARS-CoV Urbani / Binding of serum 6 to looped/cyclic peptide (PEPSCAN-ELISA) / Binding of serum 37 to looped/cyclic peptide (PEPSCAN-ELISA) / Binding of serum 37 to looped/cyclic peptides of protein X1 of SARS-CoV Urbani / Binding of serum 6 to linear peptides of protein X2 / Binding of serum 37 to linear peptides of protein X2 / Binding of serum 37 to looped/cyclic peptides of protein X2 of SARS-CoV Urbani / Binding of serum 6 to linear peptides of protein M of SARS-CoV Urbani / Binding of serum 37 to linear peptides of protein M of SARS-CoV Urbani / Binding of serum 6 to looped/cyclic peptides of protein M of SARS-CoV Urbani / Binding of serum 37 to looped/cyclic peptides of protein M of SARS-CoV Urbani / Binding of serum 6 to linear peptides of protein X3 of SARS-CoV Urbani / Binding of serum 37 to linear peptides of protein X3 of SARS-CoV Urbani / Binding of serum 37 to looped/cyclic peptides of protein X3 of SARS-CoV Urbani / Binding of serum 6 to linear peptides of protein X4 of SARS-CoV Urbani / Binding of serum 37 to linear peptides of protein X4 of SARS-CoV Urbani / Binding of serum 37 to looped/cyclic peptides of protein X4 of SARS-CoV Urbani / Binding of serum 6 to linear peptides of protein X5 of SARS-CoV Urbani / Binding of serum 37 to linear peptides of protein X5 of SARS-CoV Urbani / Binding of serum 37 to looped/cyclic peptides of protein X5 of SARS-CoV Urbani / Binding of serum 6 to linear peptides of protein N of SARS-CoV Urbani / Binding of serum 37 to linear peptides of protein N of SARS-CoV Urbani / Binding of serum 6 to linear peptide (PEPSCAN-ELISA) / Binding of serum 1a to looped/cyclic peptides of protein N of SARS-CoV Urbani / Binding of serum 1b to looped/cyclic peptides of protein N of SARS-CoV Urbani / Binding of serum 2 to looped/cyclic peptides of protein N of SARS-CoV Urbani / Binding of serum 6 to looped/cyclic peptides of protein N of SARS-CoV Urbani / Binding of serum 37 to looped/cyclic peptides of protein N of SARS-CoV Urbani / Binding of serum 62 to looped/cyclic peptides of protein N of SARS-CoV Urbani / Binding of serum London to looped/cyclic peptides of protein N of SARS-CoV Urbani / Binding of serum SARS-green to looped/cyclic peptides of protein N of SARS-CoV Urbani: unit not given here
[2] = tested on: control sera (pooled serum of ten healthy LUMC hospital workers; commercial negative donor pooled serum from the Dutch bloodbank); type: binding, human; parameters: Binding of Control serum LUMC to linear peptides / Binding of Control serum Blood-bank to linear peptides / Binding of Control serum LUMC to looped peptides / Binding of Control Serum Blood-Bank to Looped peptides / Binding of Control serum LUMC to linear peptides of the protein M of SARS-CoV Urbani / Binding of Control serum Blood-bank to linear peptides of the protein M of SARS-CoV Urbani / Binding of Control serum LUMC to looped peptides of the protein M of SARS-CoV Urbani / Binding of Control Serum Blood-Bank to Looped peptides of the protein M of SARS-CoV Urbani: unit not given here
[3] = tested on: rabbit serum obtained by immunizing a rabbit with the SARS-CoV strain Frankfurt 1; type: binding; parameters: Binding of a rabbit serum to linear peptides / Binding of a rabbit serum to looped peptides / Rabbit serum linear peptides / Rabbit serum looped peptides / Binding of a rabbit serum to linear peptides of protein N of SARS-CoV Urbani (Rabbit serum linear peptides) / Binding of a rabbit serum to looped/cyclic peptides of protein N of SARS-CoV Urbani (Rabbit serum looped peptides): unit not given here

Sequence	Binding of serum 1a to linear peptides of protein X2 [1]	Binding of serum 1a to looped/cyclic peptides of protein X2 of SARS-CoV Urbani [1]	Binding of serum 1b to linear peptides of protein X2 [1]	Binding of serum 1b to looped/cyclic peptides of protein X2 of SARS-CoV Urbani [1]	Binding of serum 2 to linear peptides of protein X2 [1]	Binding of serum 2 to looped/cyclic peptides of protein X2 of SARS-CoV Urbani [1]	Binding of serum 6 to linear peptides of protein X2 [1]	Binding of serum 6 to looped/cyclic peptides of protein X2 of SARS-CoV Urbani [1]	Binding of serum 37 to linear peptides of protein X2 [1]	Binding of serum 37 to looped/cyclic peptides of protein X2 of SARS-CoV Urbani [1]	Binding of serum 62 to linear peptides of protein X2 [1]	Binding of serum 62 to looped/cyclic peptides of protein X2 of SARS-CoV Urbani [1]	Binding of serum London to linear peptides of protein X2 [1]	Binding of serum London to looped/cyclic peptides of protein X2 of SARS-CoV Urbani [1]	Binding of serum SARS-green to linear peptides of protein X2 [1]	Binding of serum SARS-green to looped/cyclic peptides of protein X2 of SARS-CoV Urbani [1]	Binding of Control Serum Blood-Bank to Looped peptides [2]	Binding of Control serum Blood-bank to linear peptides [2]	Binding of Control serum LUMC to linear peptides [2]	Binding of Control serum LUMC to looped peptides [2]	further results
SLLKTHRMCKYTQST	0.8	0.3	0.6	0.2	0.6	0.1	0.6	0.2	0.6	0.3	0.7	0.4	0.6	0.2	0.7	0.1	0.4	0.9	0.8	0.4	Binding of serum SARS-yellow to linear peptides of protein X2 [1]: 0.7; Binding of serum SARS-yellow to looped/cyclic peptides of protein X2 of SARS-CoV Urbani [1]: 0.2; Binding of a rabbit serum to linear peptides [3]: 0.3; Binding of a rabbit serum to looped peptides [3]: 0.3
SLLKVTAFQHQNSKK	0.4	0.3	0.0	0.2	0.1	0.1	0.0	0.1	0.4	0.2	0.1	0.4	0.1	0.1	0.0	0.1	0.4	0.2	0.0	0.3	Binding of serum SARS-yellow to linear peptides of protein X2 [1]: 0.0; Binding of serum SARS-yellow to looped/cyclic peptides of protein X2 of SARS-CoV Urbani [1]: 0.2; Binding of a rabbit serum to linear peptides [3]: 0.1; Binding of a rabbit serum to looped peptides [3]: 0.3
SLSLHKLLQTLVLKM	0.6	0.5	0.5	0.5	0.3	0.3	0.5	0.9	0.4	0.4	0.5	0.5	0.4	1.2	0.6	0.3	0.6	0.4	0.3	0.7	Binding of serum SARS-yellow to linear peptides of protein X2 [1]: 0.3; Binding of serum SARS-yellow to looped/cyclic peptides of protein X2 of SARS-CoV Urbani [1]: 0.7; Binding of a rabbit serum to linear peptides [3]: 0.1; Binding of a rabbit serum to looped peptides [3]: 0.4
SNRNRFLYIIKLVFL																					Binding of serum 1a to linear peptides of protein M of SARS-CoV Urbani [1]: 0.6; Binding of serum 1b to linear peptides of protein M of SARS-CoV Urbani [1]: 0.5; Binding of serum 2 to linear peptides of protein M of SARS-CoV Urbani [1]: 0.4; Binding of serum 6 to linear peptides of protein M of SARS-CoV Urbani [1]: 0.5; Binding of serum 37 to linear peptides of protein M of SARS-CoV Urbani [1]: 0.4; Binding of serum 62 to linear peptides of protein M of SARS-CoV Urbani [1]: 0.4; Binding of serum London to linear peptides of protein M of SARS-CoV Urbani [1]: 0.3; Binding of serum SARS-green to linear peptides of protein M of SARS-CoV Urbani [1]: 0.4; Binding of serum SARS-yellow to linear peptides of protein M of SARS-CoV Urbani [1]: 0.3; Recognition of the peptide by sera of SARS-CoV infected individuals, and form (linear, looped/cyclic) in which it is recognized [1]: recognized in looped/cyclic form; Binding of Control Serum Blood-Bank to Looped peptides of the protein M of SARS-CoV Urbani [2]: 0.7; Binding of Control serum Blood-bank to linear peptides of the protein M of SARS-CoV Urbani [2]: 0.7; Binding of Control serum LUMC to linear peptides of the protein M of SARS-CoV Urbani [2]: 0.7; Binding of Control serum LUMC to looped peptides of the protein M of SARS-CoV Urbani [2]: 0.9; Rabbit serum linear peptides [3]: 0.5; Rabbit serum looped peptides [3]: 0.6
SPKFTTSLSLHKLLQ	0.6	0.5	0.4	0.5	0.4	0.3	0.4	0.4	0.5	0.3	0.5	0.5	0.4	0.2	0.5	0.2	0.5	0.5	0.3	0.6	Binding of serum SARS-yellow to linear peptides of protein X2 [1]: 0.3; Binding of serum SARS-yellow to looped/cyclic peptides of protein X2 of SARS-CoV Urbani [1]: 0.3; Binding of a rabbit serum to linear peptides [3]: 0.3; Binding of a rabbit serum to looped peptides [3]: 0.5
SPKLFIRQEEVQQEL																	0.6	0.5	0.5	0.8	Binding of serum 1a to linear peptides of protein X4 of SARS-CoV Urbani [1]: 0.7; Binding of serum 1a to looped/cyclic peptides of protein X4 of SARS-CoV Urbani [1]: 0.8; Binding of serum 1b to linear peptides of protein X4 of SARS-CoV Urbani [1]: 0.5; Binding of serum 1b to looped/cyclic peptides of protein X4 of SARS-CoV Urbani [1]: 0.6; Binding of serum 2 to linear peptides of protein X4 of SARS-CoV Urbani [1]: 0.3; Binding of serum 2 to looped/cyclic peptides of protein X4 of SARS-CoV Urbani [1]: 0.7; Binding of serum 6 to linear peptides of protein X4 of SARS-CoV Urbani [1]: 0.4; Binding of serum 6 to looped/cyclic peptides of protein X4 of SARS-CoV Urbani [1]: 0.6; Binding of serum 37 to linear peptides of protein X4 of SARS-CoV Urbani [1]: 0.7; Binding of serum 37 to looped/cyclic peptides of protein X4 of SARS-CoV Urbani [1]: 0.8; Binding of serum 62 to linear peptides of protein X4 of SARS-CoV Urbani [1]: 0.7; Binding of serum 62 to looped/cyclic peptides of protein X4 of SARS-CoV Urbani [1]: 0.6; Binding of serum London to linear peptides of protein X4 of SARS-CoV Urbani [1]: 0.7; Binding of serum London to looped/cyclic peptides of protein X4 of SARS-CoV Urbani [1]: 0.4; Binding of serum SARS-green to linear peptides of protein X4 of SARS-CoV Urbani [1]: 0.8; Binding of serum SARS-green to looped/cyclic peptides of protein X4 of SARS-CoV Urbani [1]: 0.2; Binding of serum SARS-yellow to linear peptides of protein X4 of SARS-CoV Urbani [1]: 0.5; Binding of serum SARS-yellow to looped/cyclic peptides of protein X4 of SARS-CoV Urbani [1]: 0.5; Rabbit serum linear peptides [3]: 0.5; Rabbit serum looped peptides [3]: 0.0
